Reference: patent US20240334934A1, “FUNGICIDE MIXTURE” (priority 2021, published 2024)

Legend:
Format in all cases: cell-based
Microdochium nivale = assay: Efficacy of mixtures of streptimidone and CtmC, liquid culture in PDB, optical density 620 nm
[1] = system: Gibberella zeae (Fusarium graminearum); assay: microbe, parasite or virus in culture; settings: read-out: % Efficacy
[2] = system: Zymoseptoria tritici K6318; assay: Efficacy of mixtures of streptimidone and CtmC, liquid culture in PDB, optical density 620 nm
[3] = system: Zymoseptoria tritici K6105; assay: as above; settings: for Emax at 1.23 ppm: K6105, Streptimidone 1.23 ppm alone (CtmC 0); for Emax at 3.7 ppm: K6105, Streptimidone 3.70 ppm alone (CtmC 0); for Emax at 11.11 ppm: K6105, Streptimidone 11.11 ppm alone (CtmC 0); for Emax at 33.33 ppm: K6105, Streptimidone 33.33 ppm alone (CtmC 0)
[4] = system: Fusarium Virguliforme K6286; assay: as above
[5] = system: Fusarium Virguliforme K6285; assay: as above
[6] = system: Zymoseptoria tritici K6420; assay: as above
[7] = Streptimidone 0.41 ppm alone (CtmC 0)
[8] = Streptimidone 1.23 ppm alone (CtmC 0)
[9] = Streptimidone 3.70 ppm alone (CtmC 0)
[10] = Streptimidone 11.11 ppm alone (CtmC 0)
[11] = Streptimidone 33.33 ppm alone (CtmC 0)
[12] = Streptimidone 0.14 ppm alone (CtmC 0)
[13] = Streptimidone 100 ppm alone (CtmC 0)

Compound: C=C/C(C)=C/[C@H](C)C(=O)C[C@H](O)CC1CC(=O)NC(=O)C1 [Streptimidone]
- Emax at 0.41 ppm (Microdochium nivale; [7]): 0%
- Emax at 1.23 ppm (Microdochium nivale; [8]): 0%
- Emax at 3.7 ppm (Microdochium nivale; [9]): 5%
- Emax at 11.11 ppm (Microdochium nivale; [10]): 8%
- Emax at 33.33 ppm (Microdochium nivale; [11]): 22%
- Emax at 33.33 ppm [1]: 50%
- Emax at 100 ppm [1]: 63%
- Emax at 0.14 ppm [2, 12]: 0%
- Emax at 0.41 ppm [2, 7]: 0%
- Emax at 1.23 ppm [2, 8]: 0%
- Emax at 3.7 ppm [2, 9]: 3%
- Emax at 11.11 ppm [2, 10]: 8%
- Emax at 33.33 ppm [2, 11]: 18%
- Emax at 100 ppm [2, 13]: 44%
- Emax at 0.41 ppm ([3]; K6105, Streptimidone 0.41 ppm alone (CtmC 0), lower sub-table): 7%
- Emax at 1.23 ppm ([3]; lower sub-table): 17%
- Emax at 1.23 ppm ([3]; upper sub-table): 27%
- Emax at 3.7 ppm ([3]; lower sub-table): 32%
- Emax at 3.7 ppm ([3]; upper sub-table): 39%
- Emax at 11.11 ppm ([3]; lower sub-table): 48%
- Emax at 11.11 ppm ([3]; upper sub-table): 59%
- Emax at 33.33 ppm ([3]; lower sub-table): 67%
- Emax at 33.33 ppm ([3]; upper sub-table): 81%
- Emax at 100 ppm ([3]; K6105, Streptimidone 100 ppm alone (CtmC 0), lower sub-table): 83%
- Emax at 0.14 ppm [4, 12]: 8%
- Emax at 0.41 ppm [4, 7]: 16%
- Emax at 1.23 ppm [4, 8]: 14%
- Emax at 3.7 ppm [4, 9]: 16%
- Emax at 11.11 ppm [4, 10]: 16%
- Emax at 33.33 ppm [4, 11]: 30%
- Emax at 100 ppm [4, 13]: 47%
- Emax at 0.14 ppm [5, 12]: 10%
- Emax at 0.41 ppm [5, 7]: 21%
- Emax at 1.23 ppm [5, 8]: 13%
- Emax at 3.7 ppm [5, 9]: 18%
- Emax at 11.11 ppm [5, 10]: 18%
- Emax at 33.33 ppm [5, 11]: 26%
- Emax at 100 ppm [5, 13]: 53%
- Emax at 0.41 ppm ([6]; K6420, Streptimidone 0.41 ppm alone (CtmC 0)): 7%
- Emax at 1.23 ppm ([6]; K6420, Streptimidone 1.23 ppm alone (CtmC 0)): 17%
- Emax at 3.7 ppm ([6]; K6420, Streptimidone 3.70 ppm alone (CtmC 0)): 32%
- Emax at 11.11 ppm ([6]; K6420, Streptimidone 11.11 ppm alone (CtmC 0)): 48%
- Emax at 33.33 ppm ([6]; K6420, Streptimidone 33.33 ppm alone (CtmC 0)): 67%
- Emax at 100 ppm ([6]; K6420, Streptimidone 100 ppm alone (CtmC 0)): 83%
